Test results reported in ChEMBL document CHEMBL1145296, “Development of 6-substituted indolylquinolinones as potent Chek1 kinase inhibitors” (Bioorg Med Chem Lett, 2006).

Assays:
[1] = biological target: T1, Serine/threonine-protein kinase Chk1 (Homo sapiens, UniProt O14757); assay: Inhibition of human CHEK1
T1 sequence (O14757 whole entry): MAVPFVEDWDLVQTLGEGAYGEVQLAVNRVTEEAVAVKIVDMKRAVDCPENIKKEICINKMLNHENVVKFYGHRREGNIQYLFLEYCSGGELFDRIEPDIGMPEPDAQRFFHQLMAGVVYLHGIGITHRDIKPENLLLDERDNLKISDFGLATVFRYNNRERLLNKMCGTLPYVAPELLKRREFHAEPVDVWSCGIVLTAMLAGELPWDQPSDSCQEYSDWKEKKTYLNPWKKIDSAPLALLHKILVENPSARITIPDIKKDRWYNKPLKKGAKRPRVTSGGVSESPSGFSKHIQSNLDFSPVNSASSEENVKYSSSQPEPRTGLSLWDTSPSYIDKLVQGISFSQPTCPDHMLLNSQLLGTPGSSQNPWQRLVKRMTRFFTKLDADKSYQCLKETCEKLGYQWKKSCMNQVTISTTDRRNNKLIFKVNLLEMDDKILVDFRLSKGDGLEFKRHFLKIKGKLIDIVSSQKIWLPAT

[2] = Half life in dog at 0.25 mg/kg, iv; format: ADME, organism-based, Canis lupus familiaris; design: dose 0.25 mg/kg, route intravenous; conditions: in vivo
[3] = Clearance in dog at 0.25 mg/kg, iv; format: ADME, organism-based, Canis lupus familiaris; design: dose 0.25 mg/kg, route intravenous; conditions: in vivo
[4] = Partition coefficient, log P of the compound; format: physicochemical; conditions: octanol/water

O=c1[nH]c2ccc(-c3cc[nH]n3)cc2cc1-c1cc2cc(CN3CCCCC3)ccc2[nH]1
IC50 [1]: 5.6 nM

Cn1nnc(-c2ccc3[nH]c(=O)c(-c4cc5cc(CN6CCCCC6)ccc5[nH]4)cc3c2)n1
IC50 [1]: 6.4 nM

O=c1[nH]c2ccc(-c3cnsc3)cc2cc1-c1cc2cc(CN3CCCCC3)ccc2[nH]1
IC50 [1]: 0.64 nM

O=c1[nH]c2ccc(-n3nccn3)cc2cc1-c1cc2cc(CN3CCCCC3)ccc2[nH]1
IC50 [1]: 14 nM

O=c1[nH]c2ccc(-n3ccnc3)cc2cc1-c1cc2cc(CN3CCCCC3)ccc2[nH]1
IC50 [1]: 4.3 nM

CC(=O)N1CCN(Cc2ccc3[nH]c(-c4cc5cc(-c6cnn(C)c6)ccc5[nH]c4=O)cc3c2)CC1
IC50 [1]: 3 nM | half-life [2]: 4.1 h | clearance [3]: 6.5 mL/min/kg

O=c1[nH]c2ccc(-c3cn[nH]c3)cc2cc1-c1cc2cc(CN3CCCCC3)ccc2[nH]1
logP [4]: 2.81 | half-life [2]: 4.4 h | clearance [3]: 30 mL/min/kg

N#Cc1ccc2cc(-c3cc4cc(CN5CCC(CN)CC5)ccc4[nH]3)c(=O)[nH]c2c1
IC50 [1]: 190 nM

O=c1[nH]c2ccc(-c3cccc(O)c3)cc2cc1-c1cc2cc(CN3CCCCC3)ccc2[nH]1
IC50 [1]: 29 nM

COc1cc(-c2ccc3[nH]c(=O)c(-c4cc5cc(CN6CCCCC6)ccc5[nH]4)cc3c2)ccc1O
IC50 [1]: 20 nM

O=c1[nH]c2ccc(-c3cn[nH]c3)cc2cc1-c1cc2cc(CN3CCC(F)CC3)ccc2[nH]1
IC50 [1]: 1 nM | half-life [2]: 2.5 h | clearance [3]: 22 mL/min/kg

O=c1[nH]c2ccc(-n3ccnn3)cc2cc1-c1cc2cc(CN3CCCCC3)ccc2[nH]1
IC50 [1]: 0.74 nM

O=c1[nH]c2ccc(-c3cn[nH]c3)cc2cc1-c1cc2cc(CN3CCOCC3)ccc2[nH]1
IC50 [1]: 0.83 nM | half-life [2]: 2 h | clearance [3]: 34 mL/min/kg

COCC(=O)N1CCN(Cc2ccc3[nH]c(-c4cc5cc(-c6cn[nH]c6)ccc5[nH]c4=O)cc3c2)CC1
IC50 [1]: 2.1 nM | half-life [2]: 2 h | clearance [3]: 23 mL/min/kg

N#Cc1cccc2[nH]c(=O)c(-c3cc4cc(CN5CCC(CN)CC5)ccc4[nH]3)cc12
IC50 [1]: 580 nM

O=c1[nH]c2ccccc2cc1-c1cc2ccccc2[nH]1
IC50 [1]: 1000 nM

N#Cc1ccc2[nH]c(=O)c(-c3cc4cc(CN5CCCCC5)ccc4[nH]3)cc2c1
IC50 [1]: 4.6 nM

CC(=O)N1CCN(Cc2ccc3[nH]c(-c4cc5cc(-c6cn[nH]c6)ccc5[nH]c4=O)cc3c2)CC1
IC50 [1]: 2.5 nM | half-life [2]: 1.5 h | clearance [3]: 27 mL/min/kg

Cn1cc(-c2ccc3[nH]c(=O)c(-c4cc5cc(CN6CCCCC6)ccc5[nH]4)cc3c2)cn1
IC50 [1]: 1.1 nM

NCC1CCN(Cc2ccc3[nH]c(-c4cc5cc(C(N)=O)ccc5[nH]c4=O)cc3c2)CC1
IC50 [1]: 0.7 nM

O=c1[nH]c2ccc(Br)cc2cc1-c1cc2cc(CN3CCCCC3)ccc2[nH]1
IC50 [1]: 2.9 nM

NC(=O)c1ccc2[nH]c(=O)c(-c3cc4cc(CN5CCCCC5)ccc4[nH]3)cc2c1
IC50 [1]: 0.34 nM

N#Cc1ccc2[nH]c(=O)c(-c3cc4cc(CN5CCC(CN)CC5)ccc4[nH]3)cc2c1
IC50 [1]: 4 nM
